Drawing on PubChem BioAssay (NCI), this text covers GI50 and TGI for eight compounds.

Test systems include HOP-62 NSCLC; RPMI-8226 leukemia; RXF 393 renal; 786-0 renal; NCI/ADR-RES ovarian; A549 NSCLC; HOP-92 NSCLC; TK-10 renal; KM12 colon; HCT-15 colon.
Common to all, as to test: DTP human tumour cell line panel, 48 h

Where “and” joins values, the source holds several entries; their conditions need not be identical. Equal values may be shown once.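 Protocol summary: plate cells (96-well), add compound at 5 concentrations, incubate 48 h, interpolate endpoints linearly. At the GI50, growth is halved. At the TGI there is no net growth.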

In the case of `NCCCCCCCCCn1c2c(c3ccccc3c1=O)C(=O)c1ccccc1-2`, the GI50 (as a rule, the concentration at which growth is held to half of that of the control) in the assay on HOP-62 NSCLC was 6.84 µM; in the assay with RPMI-8226 leukemia, 10400 nM; with RXF 393 renal, 10.2 µM; in the assay on 786-0 renal it was 7.72 µM; with NCI/ADR-RES ovarian, 9.47 µM; with A549 NSCLC it was 9.75 µM. Besides, the GI50 is 10100 nM with HOP-92 NSCLC, 8.8 µM in the assay with TK-10 renal, 9.53 µM in the assay with KM12 colon and 6030 nM with HCT-15 colon. Also, the concentration for total growth inhibition (TGI) (usually the concentration giving total growth inhibition) is 16.2 µM in the assay on HOP-62 NSCLC; 30.8 µM in the assay on RPMI-8226 leukemia; 24.3 µM in the assay on RXF 393 renal; 15.9 µM with 786-0 renal; 22.4 µM in the assay with NCI/ADR-RES ovarian; more than 50 µM with A549 NSCLC. Further, the total growth inhibition concentration (TGI) was determined as 21.1 µM with HOP-92 NSCLC, 17.4 µM with TK-10 renal, 22.2 µM in the assay with KM12 colon and 16.2 µM with HCT-15 colon.

On to `O=C(c1ccccc1)c1c2n(c3c1cc(O)c1ccccc13)CCN2`, for which the GI50 with HOP-62 NSCLC was 5.6 µM; in the assay on RPMI-8226 leukemia it was 2420 nM; in the assay on RXF 393 renal it was 11.1 µM; in the assay with 786-0 renal it was 9.23 µM; in the assay on NCI/ADR-RES ovarian, 23.5 µM; with A549 NSCLC it was 14.2 µM. Moreover, the GI50 in the assay on HOP-92 NSCLC is 2630 nM; in the assay with TK-10 renal it was 23.1 µM; in the assay with KM12 colon it was 3.08 µM; with HCT-15 colon, 6500 nM. Further, the total growth inhibition concentration (TGI) was 17.9 µM in the assay on HOP-62 NSCLC; 6.47 µM in the assay on RPMI-8226 leukemia; 27.1 µM in the assay on RXF 393 renal; 31.2 µM with 786-0 renal; more than 100 µM in the assay on NCI/ADR-RES ovarian; 35.5 µM with A549 NSCLC. In addition, the TGI was 9.36 µM in the assay on HOP-92 NSCLC, 75.2 µM in the assay with TK-10 renal, 8.88 µM in the assay with KM12 colon and 19.1 µM in the assay on HCT-15 colon.

In the case of `O=C1Nc2c(ccc(Cl)c2Cl)/C1=C\c1cc(C(F)(F)F)cc(C(F)(F)F)c1`, the GI50 is 7.04 µM in the assay on HOP-62 NSCLC; 115 nM in the assay with RPMI-8226 leukemia; 1.21 µM in the assay on RXF 393 renal; 4.29 µM with 786-0 renal; 6.38 µM with NCI/ADR-RES ovarian; 4.81 µM in the assay on A549 NSCLC. Besides, the GI50 in the assay with HOP-92 NSCLC is 1440 nM; in the assay with TK-10 renal, 4.37 µM; in the assay on KM12 colon, 1.42 µM; with HCT-15 colon, 1400 nM. Moreover, the TGI came to 14.4 µM with HOP-62 NSCLC; 1.45 µM with RPMI-8226 leukemia; 2.94 µM in the assay on RXF 393 renal; 10.4 µM in the assay on 786-0 renal; 14.8 µM in the assay with NCI/ADR-RES ovarian; 13 µM with A549 NSCLC. The concentration for total growth inhibition (TGI) with HOP-92 NSCLC was found to be 7.42 µM; with TK-10 renal, 13 µM; in the assay with KM12 colon, 5.53 µM; in the assay on HCT-15 colon it was 6.07 µM.

On to `O=C(Nc1ccc(Cl)cc1)c1cc2ccccc2cc1OP(=O)(O)O`, for which the GI50 in the assay with HOP-62 NSCLC is 3.57 µM; in the assay on RPMI-8226 leukemia, 1520 nM; in the assay with RXF 393 renal, 6.64 µM; in the assay on 786-0 renal, 3.59 µM; in the assay on NCI/ADR-RES ovarian, 3.51 µM; with A549 NSCLC, 4.85 µM. Besides, the GI50 with HOP-92 NSCLC is 2460 nM; in the assay with TK-10 renal it was 3.65 µM; in the assay on KM12 colon it was 3.14 µM; with HCT-15 colon, 3550 nM. Moreover, the TGI with HOP-62 NSCLC is 17 µM; with RPMI-8226 leukemia, 6.02 µM; in the assay on RXF 393 renal it was 71.1 µM; with 786-0 renal, 13.4 µM; in the assay on NCI/ADR-RES ovarian, more than 100 µM; with A549 NSCLC, more than 100 µM. Besides, the TGI with HOP-92 NSCLC is 8.45 µM; in the assay on TK-10 renal, 14.1 µM; in the assay on KM12 colon, 13.7 µM; in the assay with HCT-15 colon it was more than 100 µM.

On to `O=C(NC(Cc1ccccc1)C(=O)CCl)OCc1ccccc1` (stereo not given), for which the total growth inhibition concentration (TGI) is 30.6 µM and 29.4 µM in the assay with HOP-62 NSCLC; 14.2 µM with RXF 393 renal; 14.7 µM and 16.6 µM in the assay with 786-0 renal; 53.7 µM with NCI/ADR-RES ovarian; 33.9 µM and 36.2 µM with A549 NSCLC; 28.3 µM with HOP-92 NSCLC. The TGI is 9.43 µM and 28.4 µM in the assay on TK-10 renal; 22.2 µM and 21.7 µM with KM12 colon; 8.56 µM and 17.8 µM in the assay with HCT-15 colon. The GI50 in the assay on RPMI-8226 leukemia is 2440 nM; in the assay on RXF 393 renal, 3.62 µM; in the assay on NCI/ADR-RES ovarian, 6 µM; in the assay with A549 NSCLC, 13.9 µM; in the assay with TK-10 renal it was 2.58 µM; in the assay on HCT-15 colon, 2320 nM.

As to `COc1ccc2c(c1)CC1N(C)CCC13CCCCC23` (stereo not given), the TGI with HOP-62 NSCLC, with RPMI-8226 leukemia, with RXF 393 renal, in the assay on 786-0 renal, in the assay on NCI/ADR-RES ovarian and in the assay with A549 NSCLC was more than 100 µM throughout. For the same compound, the concentration for total growth inhibition (TGI) in the assay on HOP-92 NSCLC, in the assay on TK-10 renal, with KM12 colon and in the assay on HCT-15 colon was more than 100 µM throughout.

Regarding `COC(=O)[C@H](C)[C@@H]1CC[C@](C)(CCC2=C(C)CCCC2(C)C)OO1`, the total growth inhibition concentration (TGI) in the assay with HOP-62 NSCLC, with RPMI-8226 leukemia, with RXF 393 renal, with 786-0 renal, in the assay with NCI/ADR-RES ovarian and with A549 NSCLC was more than 25 µM in each case. Besides, the TGI in the assay with HOP-92 NSCLC, with TK-10 renal, in the assay with KM12 colon and in the assay on HCT-15 colon was more than 25 µM each time.

`ClCc1ccc(-c2ccc(Cn3cnc4c(Cl)ncnc43)cc2)cc1`: the GI50 is 1.84 µM in the assay with HOP-62 NSCLC; 2050 nM in the assay on RPMI-8226 leukemia; 1.88 µM in the assay on RXF 393 renal; 1.62 µM in the assay with 786-0 renal; 2.16 µM in the assay with NCI/ADR-RES ovarian; 4.31 µM with A549 NSCLC. The GI50 was 2020 nM with HOP-92 NSCLC, 1.65 µM in the assay with TK-10 renal, 1.59 µM in the assay with KM12 colon and 1900 nM in the assay on HCT-15 colon. In addition, the TGI in the assay on HOP-62 NSCLC stood at 3.63 µM; with RPMI-8226 leukemia, 4.87 µM; with RXF 393 renal, 4.51 µM; in the assay with 786-0 renal it was 2.97 µM; in the assay with NCI/ADR-RES ovarian it was 4.7 µM; in the assay with A549 NSCLC it was 17.4 µM. In addition, the TGI in the assay with HOP-92 NSCLC stood at 25.2 µM; in the assay with TK-10 renal, 3.58 µM; with KM12 colon, 3.56 µM; in the assay with HCT-15 colon, 4.47 µM.
